# Laboratory results from patent US20230085307A1, “PYRIDAZINONE COMPOUND AND HERBICIDE” (NISSAN CHEMICAL CORPORATION, priority 2019, published 2023).
# What was measured:
# barnyard grass [1] = experiment: Test Example 3: herbicidal effect by foliage application, Wagner pot (Table 18, symbol H); type: in vivo, barnyard grass (Echinochloa crus-galli)
# Procedure, shortened: (§1)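 Plants were sown in alluvial soil held under 0.1–0.5 cm standing water and grown 14 days in a greenhouse at 25–30 °C. An emulsifiable formulation, water-diluted to the set dose, was then sprayed onto the foliage, and effects were scored three weeks later using previously defined criteria.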
# Chinese sprangletop = experiment: Test Example 3: herbicidal effect by foliage application, Wagner pot (Table 18, symbol D); type: in vivo, chinese sprangletop (Leptochloa chinensis)
# Procedure, shortened: as §1
# rice flat sedge = experiment: Test Example 3: herbicidal effect by foliage application, Wagner pot (Table 18, symbol E); type: in vivo, rice flat sedge (Cyperus iria)
# Procedure, shortened: as §1
# southern crabgrass = experiment: Test Example 5: herbicidal effect by foliage application, plastic box (Table 20, symbol F); type: in vivo, southern crabgrass (Digitaria ciliaris); conditions: for Herbicidal effect by foliage application, F: southern crabgrass: amount of applied herbicide 320 g/ha
# Procedure, shortened: (§2)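 Post-emergence foliar test in sterilized diluvial soil. Compound applied as water-diluted emulsion at a predetermined rate to 14-day-old plants; evaluation at three weeks.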
# green foxtail = experiment: Test Example 5: herbicidal effect by foliage application, plastic box (Table 20, symbol G); type: in vivo, green foxtail (Setaria viridis); conditions: for Herbicidal effect by foliage application, G: green foxtail: amount of applied herbicide 320 g/ha
# Procedure, shortened: as §2
# barnyard grass [2] = experiment: Test Example 5: herbicidal effect by foliage application, plastic box (Table 20, symbol H); type: in vivo, barnyard grass (Echinochloa crus-galli); conditions: for Herbicidal effect by foliage application, H: barnyard grass: amount of applied herbicide 320 g/ha
# Procedure, shortened: as §2
# wild oat = experiment: Test Example 5: herbicidal effect by foliage application, plastic box (Table 20, symbol I); type: in vivo, wild oat (Avena fatua); conditions: for Herbicidal effect by foliage application, I: wild oat: amount of applied herbicide 320 g/ha
# Procedure, shortened: as §2
# blackgrass = experiment: Test Example 5: herbicidal effect by foliage application, plastic box (Table 20, symbol J); type: in vivo, blackgrass (Alopecurus myosuroides); conditions: for Herbicidal effect by foliage application, J: blackgrass: amount of applied herbicide 320 g/ha
# Procedure, shortened: as §2
# Italian ryegrass = experiment: Test Example 5: herbicidal effect by foliage application, plastic box (Table 20, symbol K); type: in vivo, Italian ryegrass (Lolium multiflorum); conditions: for Herbicidal effect by foliage application, K: Italian ryegrass: amount of applied herbicide 320 g/ha
# Procedure, shortened: as §2
# windgrass = experiment: Test Example 5: herbicidal effect by foliage application, plastic box (Table 20, symbol L); type: in vivo, windgrass (Apera spica-venti); conditions: for Herbicidal effect by foliage application, L: windgrass: amount of applied herbicide 320 g/ha
# Procedure, shortened: as §2
# velvetleaf = experiment: Test Example 5: herbicidal effect by foliage application, plastic box (Table 20, symbol M); type: in vivo, velvetleaf (Abutilon theophrasti); conditions: for Herbicidal effect by foliage application, M: velvetleaf: amount of applied herbicide 320 g/ha
# Procedure, shortened: as §2
# redroot pigweed = experiment: Test Example 5: herbicidal effect by foliage application, plastic box (Table 20, symbol N); type: in vivo, redroot pigweed (Amaranthus retroflexus); conditions: for Herbicidal effect by foliage application, N: redroot pigweed: amount of applied herbicide 320 g/ha
# Procedure, shortened: as §2
# lambsquarters = experiment: Test Example 5: herbicidal effect by foliage application, plastic box (Table 20, symbol O); type: in vivo, lambsquarters (Chenopodium album); conditions: for Herbicidal effect by foliage application, O: lambsquarters: amount of applied herbicide 320 g/ha
# Procedure, shortened: as §2
# chickweed = experiment: Test Example 5: herbicidal effect by foliage application, plastic box (Table 20, symbol P); type: in vivo, common chickweed (Stellaria media); conditions: for Herbicidal effect by foliage application, P: chickweed: amount of applied herbicide 320 g/ha
# Procedure, shortened: as §2
# persian speedwell = experiment: Test Example 5: herbicidal effect by foliage application, plastic box (Table 20, symbol R); type: in vivo, Persian speedwell (Veronica persica); conditions: for Herbicidal effect by foliage application, R: persian speedwell: amount of applied herbicide 320 g/ha
# Procedure, shortened: as §2
# [3] = 320 g/ha, foliage application after 14-day growth, evaluated three weeks after application
# [4] = foliage application, AAH 320 g/ha, three weeks after application
# [5] = amount of applied herbicide 320 g/ha
# [6] = foliage application, AAH 320 g/ha, evaluated three weeks after application
# [7] = foliage application after 14-day growth, evaluated three weeks after application
structure (smiles),measurement,setting,value
Cc1nn(C)c(=O)c(-c2c(-c3ccc(C(F)(F)F)cc3)sc3c(Cl)cccc23)c1O [4-029],herbicidal effect on barnyard grass (H),barnyard grass [1]; 320 g/ha,3 (Herbicidal rate of 40% or more and less than 70%)
same,herbicidal effect on Chinese sprangletop (D),Chinese sprangletop; 320 g/ha,0 (Herbicidal rate of 5% or less (almost no effect))
same,herbicidal effect on rice flat sedge (E),rice flat sedge; 320 g/ha,0 (Herbicidal rate of 5% or less (almost no effect))
same,herbicidal effect on F: southern crabgrass (evaluation grade 0-5),southern crabgrass; [3],0 (Herbicidal rate of 5% or less (almost no effect))
same,herbicidal effect on G: green foxtail (evaluation grade 0-5),green foxtail; [3],0 (Herbicidal rate of 5% or less (almost no effect))
same,herbicidal effect on H: barnyard grass (evaluation grade 0-5),barnyard grass [2]; [3],0 (Herbicidal rate of 5% or less (almost no effect))
same,herbicidal effect on I: wild oat (evaluation grade 0-5),wild oat; [3],0 (Herbicidal rate of 5% or less (almost no effect))
same,herbicidal effect on J: blackgrass (evaluation grade 0-5),blackgrass; [3],0 (Herbicidal rate of 5% or less (almost no effect))
same,herbicidal effect on K: Italian ryegrass (evaluation grade 0-5),Italian ryegrass; [3],0 (Herbicidal rate of 5% or less (almost no effect))
same,herbicidal effect on L: windgrass (evaluation grade 0-5),windgrass; [3],4 (Herbicidal rate of 70% or more and less than 90%)
same,herbicidal effect on M: velvetleaf (evaluation grade 0-5),velvetleaf; [3],0 (Herbicidal rate of 5% or less (almost no effect))
same,herbicidal effect on N: redroot pigweed (evaluation grade 0-5),redroot pigweed; [3],0 (Herbicidal rate of 5% or less (almost no effect))
same,herbicidal effect on O: lambsquarters (evaluation grade 0-5),lambsquarters; [3],3 (Herbicidal rate of 40% or more and less than 70%)
same,herbicidal effect on P: chickweed (evaluation grade 0-5),chickweed; [3],5 (Herbicidal rate of 90% or more (almost completely withered))
same,herbicidal effect on R: persian speedwell (evaluation grade 0-5),persian speedwell; [3],0 (Herbicidal rate of 5% or less (almost no effect))
COc1nn(C)c(=O)c(-c2c(-c3cccc(OC(F)(F)F)c3)sc3ccccc23)c1O [1-160],"herbicidal effect on H (barnyard grass), rating 0-5",barnyard grass [1]; 320 g/ha,0 (Herbicidal rate of 5% or less (almost no effect))
same,"herbicidal effect on D (Chinese sprangletop), rating 0-5",Chinese sprangletop; 320 g/ha,1 (Herbicidal rate of 5% or more and less than 20%)
same,"herbicidal effect on E (rice flat sedge), rating 0-5",rice flat sedge; 320 g/ha,4 (Herbicidal rate of 70% or more and less than 90%)
same,"F: southern crabgrass, herbicidal effect",southern crabgrass; [4],0 (Herbicidal rate of 5% or less (almost no effect))
same,"G: green foxtail, herbicidal effect",green foxtail; [4],1 (Herbicidal rate of 5% or more and less than 20%)
same,"H: barnyard grass, herbicidal effect",barnyard grass [2]; [4],1 (Herbicidal rate of 5% or more and less than 20%)
same,"I: wild oat, herbicidal effect",wild oat; [4],0 (Herbicidal rate of 5% or less (almost no effect))
same,"J: blackgrass, herbicidal effect",blackgrass; [4],0 (Herbicidal rate of 5% or less (almost no effect))
same,"K: Italian ryegrass, herbicidal effect",Italian ryegrass; [4],1 (Herbicidal rate of 5% or more and less than 20%)
same,"L: windgrass, herbicidal effect",windgrass; [4],0 (Herbicidal rate of 5% or less (almost no effect))
same,"M: velvetleaf, herbicidal effect",velvetleaf; [4],1 (Herbicidal rate of 5% or more and less than 20%)
same,"N: redroot pigweed, herbicidal effect",redroot pigweed; [4],5 (Herbicidal rate of 90% or more (almost completely withered))
same,"O: lambsquarters, herbicidal effect",lambsquarters; [4],1 (Herbicidal rate of 5% or more and less than 20%)
same,"P: chickweed, herbicidal effect",chickweed; [4],4 (Herbicidal rate of 70% or more and less than 90%)
same,"R: persian speedwell, herbicidal effect",persian speedwell; [4],0 (Herbicidal rate of 5% or less (almost no effect))
CC(=O)COc1c(C)nn(C)c(=O)c1-c1c(-c2ccc(OC(F)F)cc2)sc2ccc(F)cc12 [2-304],herbicidal effect on H: barnyard grass,barnyard grass [1]; [5],3 (Herbicidal rate of 40% or more and less than 70%)
same,herbicidal effect on D: Chinese sprangletop,Chinese sprangletop; [5],3 (Herbicidal rate of 40% or more and less than 70%)
same,herbicidal effect on E: rice flat sedge,rice flat sedge; [5],3 (Herbicidal rate of 40% or more and less than 70%)
same,"F: southern crabgrass, herbicidal effect (criteria 0-5)",southern crabgrass; [6],0 (Herbicidal rate of 5% or less (almost no effect))
same,"G: green foxtail, herbicidal effect (criteria 0-5)",green foxtail; [6],0 (Herbicidal rate of 5% or less (almost no effect))
same,"H: barnyard grass, herbicidal effect (criteria 0-5)",barnyard grass [2]; [6],0 (Herbicidal rate of 5% or less (almost no effect))
same,"I: wild oat, herbicidal effect (criteria 0-5)",wild oat; [6],0 (Herbicidal rate of 5% or less (almost no effect))
same,"J: blackgrass, herbicidal effect (criteria 0-5)",blackgrass; [6],0 (Herbicidal rate of 5% or less (almost no effect))
same,"K: Italian ryegrass, herbicidal effect (criteria 0-5)",Italian ryegrass; [6],0 (Herbicidal rate of 5% or less (almost no effect))
same,"L: windgrass, herbicidal effect (criteria 0-5)",windgrass; [6],0 (Herbicidal rate of 5% or less (almost no effect))
same,"M: velvetleaf, herbicidal effect (criteria 0-5)",velvetleaf; [6],0 (Herbicidal rate of 5% or less (almost no effect))
same,"N: redroot pigweed, herbicidal effect (criteria 0-5)",redroot pigweed; [6],5 (Herbicidal rate of 90% or more (almost completely withered))
same,"O: lambsquarters, herbicidal effect (criteria 0-5)",lambsquarters; [6],3 (Herbicidal rate of 40% or more and less than 70%)
same,"P: chickweed, herbicidal effect (criteria 0-5)",chickweed; [6],5 (Herbicidal rate of 90% or more (almost completely withered))
same,"R: persian speedwell, herbicidal effect (criteria 0-5)",persian speedwell; [6],5 (Herbicidal rate of 90% or more (almost completely withered))
CCCC(=O)Oc1c(C)nn(C)c(=O)c1-c1c(-c2ccc(C(C)C)cc2)sc2cc(F)c(F)cc12 [5-006],herbicidal effect on barnyard grass (H),barnyard grass [1]; 320 g/ha,4 (Herbicidal rate of 70% or more and less than 90%)
same,herbicidal effect on Chinese sprangletop (D),Chinese sprangletop; 320 g/ha,1 (Herbicidal rate of 5% or more and less than 20%)
same,herbicidal effect on rice flat sedge (E),rice flat sedge; 320 g/ha,3 (Herbicidal rate of 40% or more and less than 70%)
same,"Herbicidal effect by foliage application, F: southern crabgrass",southern crabgrass; [7],0 (Herbicidal rate of 5% or less (almost no effect))
same,"Herbicidal effect by foliage application, G: green foxtail",green foxtail; [7],0 (Herbicidal rate of 5% or less (almost no effect))
same,"Herbicidal effect by foliage application, H: barnyard grass",barnyard grass [2]; [7],0 (Herbicidal rate of 5% or less (almost no effect))
same,"Herbicidal effect by foliage application, I: wild oat",wild oat; [7],0 (Herbicidal rate of 5% or less (almost no effect))
same,"Herbicidal effect by foliage application, J: blackgrass",blackgrass; [7],0 (Herbicidal rate of 5% or less (almost no effect))
same,"Herbicidal effect by foliage application, K: Italian ryegrass",Italian ryegrass; [7],0 (Herbicidal rate of 5% or less (almost no effect))
same,"Herbicidal effect by foliage application, L: windgrass",windgrass; [7],0 (Herbicidal rate of 5% or less (almost no effect))
same,"Herbicidal effect by foliage application, M: velvetleaf",velvetleaf; [7],3 (Herbicidal rate of 40% or more and less than 70%)
same,"Herbicidal effect by foliage application, N: redroot pigweed",redroot pigweed; [7],3 (Herbicidal rate of 40% or more and less than 70%)
same,"Herbicidal effect by foliage application, O: lambsquarters",lambsquarters; [7],3 (Herbicidal rate of 40% or more and less than 70%)
same,"Herbicidal effect by foliage application, P: chickweed",chickweed; [7],4 (Herbicidal rate of 70% or more and less than 90%)
same,"Herbicidal effect by foliage application, R: persian speedwell",persian speedwell; [7],1 (Herbicidal rate of 5% or more and less than 20%)
Cc1nn(C)c(=O)c(-c2c(-c3ccc(C#N)cc3)sc3cc(Cl)c(Cl)cc23)c1O [5-049],herbicidal effect on barnyard grass (H),barnyard grass [1]; 320 g/ha,3 (Herbicidal rate of 40% or more and less than 70%)
same,herbicidal effect on Chinese sprangletop (D),Chinese sprangletop; 320 g/ha,0 (Herbicidal rate of 5% or less (almost no effect))
same,herbicidal effect on rice flat sedge (E),rice flat sedge; 320 g/ha,0 (Herbicidal rate of 5% or less (almost no effect))
same,"Herbicidal effect by foliage application, F: southern crabgrass",southern crabgrass; [7],0 (Herbicidal rate of 5% or less (almost no effect))
same,"Herbicidal effect by foliage application, G: green foxtail",green foxtail; [7],2 (Herbicidal rate of 20% or more and less than 40%)
same,"Herbicidal effect by foliage application, H: barnyard grass",barnyard grass [2]; [7],0 (Herbicidal rate of 5% or less (almost no effect))
same,"Herbicidal effect by foliage application, I: wild oat",wild oat; [7],0 (Herbicidal rate of 5% or less (almost no effect))
same,"Herbicidal effect by foliage application, J: blackgrass",blackgrass; [7],0 (Herbicidal rate of 5% or less (almost no effect))
same,"Herbicidal effect by foliage application, K: Italian ryegrass",Italian ryegrass; [7],0 (Herbicidal rate of 5% or less (almost no effect))
same,"Herbicidal effect by foliage application, L: windgrass",windgrass; [7],3 (Herbicidal rate of 40% or more and less than 70%)
same,"Herbicidal effect by foliage application, M: velvetleaf",velvetleaf; [7],1 (Herbicidal rate of 5% or more and less than 20%)
same,"Herbicidal effect by foliage application, N: redroot pigweed",redroot pigweed; [7],5 (Herbicidal rate of 90% or more (almost completely withered))
same,"Herbicidal effect by foliage application, O: lambsquarters",lambsquarters; [7],4 (Herbicidal rate of 70% or more and less than 90%)
same,"Herbicidal effect by foliage application, P: chickweed",chickweed; [7],0 (Herbicidal rate of 5% or less (almost no effect))
same,"Herbicidal effect by foliage application, R: persian speedwell",persian speedwell; [7],0 (Herbicidal rate of 5% or less (almost no effect))
